Results published in paper PMC3757248, “Antiestrogen-binding site ligands induce autophagy in myeloma cells that proceeds through alteration of cholesterol metabolism” (Oncotarget, 2013).

Assays:
RPMI 8226 cells [1] = assay: Electron microscopy for MLBs, AVs and UVs; type: cell-based, human; conditions: 48 h, 10 μM drug (PBPE 40 μM)
ChEH [2] = biological target: T1, ChEH (Homo sapiens, UniProt Q15125+Q9UBM7); assay: ChEH activity in HMCLs (TLC); type: cell-based; parameters: endogenous in cells; host or cells: RPMI 8226 and LP-1 human multiple myeloma cell lines; conditions: for ChEH activity, conversion of 5,6-EC into CT by TLC: OHT, Tam, RU 58668 10 μM, PBPE 40 μM
T1 sequence (Q15125 whole entry): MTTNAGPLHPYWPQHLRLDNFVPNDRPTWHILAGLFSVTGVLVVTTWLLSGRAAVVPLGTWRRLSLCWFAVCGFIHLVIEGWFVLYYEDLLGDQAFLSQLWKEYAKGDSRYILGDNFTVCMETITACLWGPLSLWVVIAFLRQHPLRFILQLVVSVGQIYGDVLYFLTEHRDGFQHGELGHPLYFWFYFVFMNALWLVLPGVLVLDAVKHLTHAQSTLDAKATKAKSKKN
T1 sequence (Q9UBM7 whole entry): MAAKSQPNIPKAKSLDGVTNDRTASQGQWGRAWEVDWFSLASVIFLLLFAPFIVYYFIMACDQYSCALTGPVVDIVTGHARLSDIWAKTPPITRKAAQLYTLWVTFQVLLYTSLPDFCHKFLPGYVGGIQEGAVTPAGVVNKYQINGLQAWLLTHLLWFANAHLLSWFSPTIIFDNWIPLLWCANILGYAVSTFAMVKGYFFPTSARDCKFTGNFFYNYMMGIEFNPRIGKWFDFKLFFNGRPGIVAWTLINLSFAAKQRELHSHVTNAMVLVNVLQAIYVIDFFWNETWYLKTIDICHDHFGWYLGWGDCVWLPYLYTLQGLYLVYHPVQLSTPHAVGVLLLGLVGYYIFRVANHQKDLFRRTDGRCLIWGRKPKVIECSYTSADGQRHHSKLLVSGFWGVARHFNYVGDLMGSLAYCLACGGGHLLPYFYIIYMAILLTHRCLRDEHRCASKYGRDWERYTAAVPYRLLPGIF
Excerpt: (§1) Cells were then pelleted and extracted with chloroform/methanol (2/1). The organic layer was reduced to dryness under a flux of argon and the residue was resuspended in EtOH. Samples were applied to thin layer chromatography (TLC) plates and developed using ethyl acetate as previously described. The radioactive metabolites were visualized by autoradiography using Kodak Biomax MS films.

AEBS [3] = biological target: T2, AEBS (Homo sapiens, UniProt Q15125+Q9UBM7); assay: Binding to the AEBS in LP1; parameters: endogenous in cells; host or cells: LP-1 human multiple myeloma cell lines
T2 sequence (Q15125 whole entry): as the sequence (Q15125 whole entry) above
T2 sequence (Q9UBM7 whole entry): as the sequence (Q9UBM7 whole entry) above

LP-1 cells [4] = assay: Electron microscopy for MLBs, AVs and UVs; type: cell-based, human; conditions: 48 h, 10 μM drug (PBPE 40 μM)
ChEH [5] = biological target: T1, ChEH; assay: ChEH activity measured on intact cells; type: cell-based; parameters: endogenous in cells; host or cells: LP-1 human multiple myeloma cell lines
Excerpt: as §1

NCI-H929 = tested on: NCI-H929; parameters: method as in earlier work; conditions: cited from earlier work
RPMI 8226 = tested on: RPMI 8226; parameters: method as in earlier work; conditions: cited from earlier work
OPM-2 = tested on: OPM-2; parameters: method as in earlier work; conditions: cited from earlier work
ChEH [6] = biological target: T1, ChEH; assay: ChEH activity measured on intact cells; type: cell-based; parameters: endogenous in cells; host or cells: RPMI 8226 human multiple myeloma cell lines
Excerpt: as §1

AEBS [7] = biological target: T2, AEBS; assay: Binding to the AEBS in HMCLs; parameters: endogenous in cells; host or cells: RPMI 8226 and LP-1 human multiple myeloma cell lines
LP-1 = tested on: LP-1; parameters: method as in earlier work; conditions: cited from earlier work
HMCLs = assay: Free sterol accumulation in HMCLs; type: cell-based, human
Experimental: (§2) The organic layer was reduced to dryness under a flux of argon and the residue was resuspended in ethanol. Sterols were analyzed by liquid chromatography and gas-liquid chromatography as described before. Neutral lipids and sphingomyelin analyses were done according to previously published procedures.

Karpas 620 = tested on: Karpas 620; parameters: method as in earlier work; conditions: cited from earlier work
MM tumors = tested on: MM tumors; parameters: method as in PMID 20033476, PMID 16753295; conditions: xenografted mice bearing MM tumors; cited from earlier work
U266 = tested on: U266; parameters: method as in earlier work; conditions: cited from earlier work
AEBS [8] = biological target: T2, AEBS; assay: Binding to the AEBS in RPMI 8226
LP-1 cells [9] = assay: Sterols accumulated in cells, HPLC and GC/MS; type: cell-based, human; conditions: LP1, 48 h incubation
Experimental: as §2

RPMI 8226 cells [10] = assay: Sterols accumulated in cells, HPLC and GC/MS; type: cell-based, human; conditions: RPMI 8226, 48 h incubation
Experimental: as §2

RPMI 8226 and LP-1 cells [11] = assay: Intracellular free sterol, TG and SM contents; type: cell-based, human; conditions: 5 µM OHT, 20 µM PBPE or 5 µM RU 58668 for three days
Experimental: as §2

RPMI 8226 and LP-1 cells [12] = assay: Degradation of long-lived proteins; type: cell-based, human; conditions: both cell lines, 10 μM OHT, 40 μM PBPE
Experimental: The degradation of long-lived proteins was measured as described previously. Briefly, HMCLs were incubated for 24 h at 37°C with 0.2 μCi/ml of L-[[14]C]valine in complete medium. Cells were then washed resuspended in medium with no nutrients but supplemented with 10 mM valine. After the first h of incubation, the chase medium was replaced by complete medium and the incubation continued for 5 h. […] Radiolabeled proteins present in the chase medium as well as in cells were precipitated with 10% trichloroacetic acid (v/v) at 4°C. Radioactivity was measured by scintillation counting. The rate of protein degradation was calculated from the ratio of radioactivity in the medium to that of precipitated cell fraction.

LP-1 cells [13] = assay: Presence of 5,6-EC in cells by GC/MS; type: cell-based, human; conditions: 48 h, 10 μM drug (PBPE 40 μM)
Experimental: as §2

RPMI 8226 cells [14] = assay: Presence of 5,6-EC in cells by GC/MS; type: cell-based, human; conditions: 48 h, 10 μM drug (PBPE 40 μM)
Experimental: as §2

RPMI 8226 and LP-1 cells [15] = assay: Cell viability, MTT assay; type: cell-based, human; conditions: 1 μM LY 294002, 10 nM everolimus, 10 μM RU 39411, 40 μM PBPE
Experimental: RPMI 8226 were obtained from R Bataille (CLCC, Nantes, France) and LP-1 cells from D Bouscary (Institut Cochin, Paris, France). At their arrival, the identity of cells was checked by karyotyping and surface markers expression; cells were then amplified and frozen. HMCLs were maintained in RPMI 1640 medium (Lonza, Basel, Switzerland) supplemented with 2 mM L-glutamine (Lonza) and 10% FCS (fetal calf serum) (PAA Laboratories, Velizy-Villacoublay, France). In experiments with AEs, cells were cultured in phenol red-free medium plus FCS. AEs were dissolved in ethanol (EtOH) to obtain 10 mM stock solution and then diluted into medium immediately before use. For controls, vehicle was added at the same final concentration. Cell viability was determined using CellTiter 96® AQueous One Solution (MTT [([3]-([4],[5])-dimethylthiazol-[2]-yl)-[2],[5]-diphenyltetrazolium bromide] assay, Promega, Charbonnières, France) according to the supplier's instructions.

[16] = RPMI 8226, presence of 500 μM Vit E

| Compound | AV (RPMI 8226 cells [1]; RPMI 8226, absence of Vit E) | MLB (RPMI 8226 cells [1]; RPMI 8226, absence of Vit E) | UV (RPMI 8226 cells [1]; RPMI 8226, absence of Vit E) | AV (RPMI 8226 cells [1]; [16]) | MLB (RPMI 8226 cells [1]; [16]) | UV (RPMI 8226 cells [1]; [16]) | ChEH activity, conversion of 5,6-EC into CT by TLC (ChEH [2]) | Ki (AEBS [3]) | AV (LP-1 cells [4]; LP-1, absence of Vit E) | MLB (LP-1 cells [4]; LP-1, absence of Vit E) | UV (LP-1 cells [4]; LP-1, absence of Vit E) | AV (LP-1 cells [4]; LP-1, presence of 500 μM Vit E) | MLB (LP-1 cells [4]; LP-1, presence of 500 μM Vit E) | UV (LP-1 cells [4]; LP-1, presence of 500 μM Vit E) | affinity for the AEBS (AEBS [7]) | free sterol accumulated (HMCLs) | Ki (AEBS [8]) | also measured |
| --- | --- | --- | --- | --- | --- | --- | --- | --- | --- | --- | --- | --- | --- | --- | --- | --- | --- | --- |
| C[C@]12C[C@H](c3ccc(OCCCCCS(=O)(=O)CCCC(F)(F)C(F)(F)F)cc3)[C@@H]3c4ccc(O)cc4CC[C@H]3[C@@H]1CC[C@@H]2O [RU 58668, 17β-11-[4-[5-[([4],[4],[5],[5],[5]-pentafluoropentyl)-sulfonyl]-pentyloxy]-phenyl]estra-1,3,5(10)-triene,3,17-diol] | + + (The sign + means that 80 % cells were positive and contained at least 5 vesicles) | − − (otherwise they were considered as negative (-)) | − − (otherwise they were considered as negative (-)) | + + (The sign + means that 80 % cells were positive and contained at least 5 vesicles) | − − (otherwise they were considered as negative (-)) | − − (otherwise they were considered as negative (-)) | CT accumulated | > 10000 nM | + + (The sign + means that 80 % cells were positive and contained at least 5 vesicles) | − − (otherwise they were considered as negative (-)) | − − (otherwise they were considered as negative (-)) | + + (The sign + means that 80 % cells were positive and contained at least 5 vesicles) | − − (otherwise they were considered as negative (-)) | − − (otherwise they were considered as negative (-)) | no measurable affinity | did not induce free sterol accumulation | > 10000 nM | IC50 (ChEH [2]; read-out: concentration up to which ChEH was not inhibited): > 10000 nM; IC50 (ChEH [5]; LP-1 intact cells, [14C]-5,6-EC 0.6 μM, drugs 1 nM to 10 μM over 24 h, read-out: ChEH IC50): > 10000 nM; SERM and SERDs effects on MM cell lines (NCI-H929): Apoptosis; SERM and SERDs effects on MM cell lines (RPMI 8226): Apoptosis; SERM and SERDs effects on MM cell lines (OPM-2): G1-arrest; IC50 (ChEH [6]; RPMI 8226 intact cells, [14C]-5,6-EC 0.6 μM, drugs 1 nM to 10 μM over 24 h, read-out: ChEH IC50): > 10000 nM; SERM and SERDs effects on MM cell lines (LP-1): G1-arrest; SERM and SERDs effects on MM cell lines (Karpas 620): No response; tumor growth (MM tumors): block tumor growth; SERM and SERDs effects on MM cell lines (U266): No response |
| Cl.c1ccc(Cc2ccc(OCCN3CCCC3)cc2)cc1 [PBPE, 1-(2-(4-benzylphenoxy)-ethyl)-pyrrolidin-HCl] | + + (The sign + means that 80 % cells were positive and contained at least 5 vesicles) | + + (The sign + means that 80 % cells were positive and contained at least 5 vesicles) | + (The sign + means that 80 % cells were positive and contained at least 5 vesicles) | + + (The sign + means that 80 % cells were positive and contained at least 5 vesicles) | + + (The sign + means that 80 % cells were positive and contained at least 5 vesicles) | − (otherwise they were considered as negative (-)) | ChEH activity was inhibited | 3.2 ± 2.2 nM | + + (The sign + means that 80 % cells were positive and contained at least 5 vesicles) | + + (The sign + means that 80 % cells were positive and contained at least 5 vesicles) | + (The sign + means that 80 % cells were positive and contained at least 5 vesicles) | + + (The sign + means that 80 % cells were positive and contained at least 5 vesicles) | + + (The sign + means that 80 % cells were positive and contained at least 5 vesicles) | − (otherwise they were considered as negative (-)) | high affinity | accumulation zymostenol | 4.2 ± 1.8 nM | Desmosterol (LP-1 cells [9]): 1.2 percent by the weight of total sterol; Zymostenol (LP-1 cells [9]): 31.1 percent by the weight of total sterol; Desmosterol (RPMI 8226 cells [10]): 1.4 percent by the weight of total sterol; Zymostenol (RPMI 8226 cells [10]): 28.7 percent by the weight of total sterol; intracellular free sterol, triacylglycerol (TG) and sphingomyelin (SM) contents (RPMI 8226 and LP-1 cells [11]): increases; rate of long-lived protein degradation (RPMI 8226 and LP-1 cells [12]): stimulated; 5,6-EC (LP-1 cells [13]; LP-1, absence of Vit E): +; 5,6-EC (LP-1 cells [13]; LP-1, presence of 500 μM Vit E): −; 5,6-EC (RPMI 8226 cells [14]; RPMI 8226, absence of Vit E): +; 5,6-EC (RPMI 8226 cells [14]; [16]): −; IC50 (ChEH [5]): 884 ± 32 nM; IC50 (ChEH [6]): 927 ± 24 nM; cell death (viable cells, MTT assay) (RPMI 8226 and LP-1 cells [15]): cell death that was strictly caspase-independent |
